These results are taken from US9403873B2, “Peptides targeting receptor activator of nuclear factor-κB (RANK) and their applications” (UNIVERSITE DE NANTES, priority 2011, dated 2016).

For data set [1], the target named is T1, hRANK (Homo sapiens, UniProt Q9Y6Q6).
T1 construct: For NMR experiments with soluble RANK receptor-Fc (R&D Systems); purchased R&D Systems
T1 sequence (Q9Y6Q6 30-212 limits assumed): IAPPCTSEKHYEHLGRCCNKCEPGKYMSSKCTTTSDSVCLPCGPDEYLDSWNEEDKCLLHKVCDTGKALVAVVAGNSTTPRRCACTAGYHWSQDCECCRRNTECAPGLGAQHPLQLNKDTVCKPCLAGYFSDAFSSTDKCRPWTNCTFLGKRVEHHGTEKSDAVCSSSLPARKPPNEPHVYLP
Nature of the data set: Surface plasmon resonance (Biacore) binding to immobilized RANK-Fc. To be noted: SPR, 1:1 Langmuir model. Here is the method: Biosensor experiments were carried out on a BIAcore 3000 instrument (BIAcore) as published previously (Baud′Huin et al. 2009). Recombinant purified RANKL (2 μg/mL in 5 mM maleate, pH 5.75) or RANK-Fc carrier-free (5 μg/mL in sodium acetate buffer, pH 5.0) were covalently immobilized to the dextran matrix of a CM5 sensor chip (BIAcore) at a flow rate of 5 μL/min. Immobilization levels ranging from 400 to 3000 Response Units (RU) for RANKL or 5000 RU for RANK were obtained. Binding assays were performed at 25° C. in 10 mM Hepes buffer, pH 7.4. The association phase was 180 seconds followed by a dissociation phase in the same buffer. Polypeptides binding studies to RANK or RANKL were determined using single cycle kinetics, starting with 100 μM of the polypeptide of interest followed by 2-fold serial dilutions (ranging from 100 to 0.78 μM). The sensorgrams were fitted to calculate the equilibrium-dissociation constants using the Langmuir 1:1 model with BiaEval 4.1 software (BIAcore). RANK-Fc CF, RANKL and OPG carrier-free were obtained from R&D Systems (Minneapolis, Minn., USA).

Data set [2] deals with mesenchymal stem cells (MSCs). Nature of the data set: Mineralization of mesenchymal stem cells (Alizarin red staining). It counts as cell-based. To be noted: 100 μM.
A short description of data set [3]: Stability of the polypeptide under NMR conditions in phosphate buffer. It counts as physicochemical. To be noted: without protein, 2 weeks. Here is the method: (§1) NMR experiments were run at 500.13 MHz for ^1H on a Bruker AVANCE 500 spectrometer with a Linux PC workstation, using standard 5 mm or Shigemi 3 mm tubes with susceptibility matched to solvent ^2H2O/Water sample tubes. The spectra of the polypeptide Pep8 at 0.1, 0.2, 0.4 or 1 mM sample concentrations were recorded in 50 mM sodium phosphate buffer at pH 7.4, prepared in 95% H2O and 5% ^2H2O. Two-dimensional NMR spectra were recorded in the phase-sensitive mode using the States—TPPI method (States et al. 1982). All experiments were carried out using the WATERGATE pulse sequence for water suppression (Piotto et al. 1992) or using the excitation sculpting water suppression (Hwang et al. 1995) to eliminate solvent signal in H2O/^2H2O 95:5 solution. The two-dimensional COSY, TOCSY and NOESY spectra were recorded at 280 K. TOCSY spectra were recorded using a MLEV-17 spin-lock sequence (Bax et al. 1985) with a mixing time (τm) of 35 and 70 ms, respectively. 2D NOESY experiments were recorded at a mixing time (τm) of 100, 200 or 500 ms. The heteronuclear spectra ^1H-^13C HSQC were recorded at 280 K in the same conditions. […] Transferred nuclear Overhauser effect (TRNOESY) spectra of Pep8 with RANK receptor-Fc protein were recorded using a mixing time (Tm) of 100, 200 or 500 ms.

Data set [4] concerns the target T1, hRANK. Description: Saturation transfer difference (STD) NMR of Pep8 binding to RANK. The conditions noted are these: Pep8:RANK-Fc 100:1 to 1000:1, phosphate buffer. Here is the method: as §1, with “All experiments were carried out using the WATERGATE pulse sequence for water suppression (Piotto et al. 1992) or using the excitation sculpting water suppression (Hwang et al. 1995) to eliminate solvent signal in H2O/^2H2O 95:5 solution.” left out
^1D ^1H STD NMR spectra of the polypeptide—protein mixtures were recorded at 500 MHz with 4K scans and selective saturation of protein resonances as described previously (Pons et al. 2011). […]

Ends that are not written are not given here.

One may read the kon as the rate constant with which the complex forms. One may read the koff as the first-order rate constant of dissociation. As to NVLKLCSGE [Pep8, NVLKLCSGE], the kon in data set [1] (read-out: association rate constant (kon)) came out at 495 M⁻¹ s⁻¹. For the same sequence, in data set [1] (read-out: dissociation rate constant (koff)), the koff came out at 0.0052 s⁻¹. Besides, the “effect on mineralization of MSCs” value in data set [2] is on record as “nor did the polypeptide at 100 μM exhibit any effect”. In addition, the “stability under experimental NMR conditions” value in data set [3] is “remained stable”. Further, in data set [4], the “STD relative transfer ratio of residues C6S7” value came out at 60% and the “STD saturation received by residues L3K4L5” value was 100%.
